Laboratory results reported in US11439646B2, “Anti-proliferative agents for treating PAH” (Pfizer Inc., priority 2016, dated 2022).
Read-outs that look alike come from different tables or passages of the source.

How the values were obtained:
Type in all cases: cell-based
human primary PASMCs = assay: BrdU cell proliferation assay, human primary PASMCs; conditions: PASMC
Method: (§1) Cell proliferation assay. Primary PASMCs and PAAFs from normal human subjects (ScienCell Research Laboratories, San Diego, Calif., USA) and rat primary PASMCs (Cell Applications, San Diego, Calif., USA) were plated in CellBIND® 96-well plates in Dulbecco's modification of Eagle's medium (DMEM) containing 5% fetal bovine serum (FBS), and serum-starved for 24 h in DMEM containing 0.1% FBS. Cells were first pre-incubated with different concentrations of palbociclib (in triplicates) for 30 minutes, and then 30 ng/ml PDGF-BB or 5% FBS was added to stimulate cell proliferation. Cells were maintained for 48 h before the proliferation rate was evaluated using the Cell Proliferation ELISA BrdU (bromodeoxyuridine) Luminescence Kit (Roche Diagnostics, Mannheim, Germany). BrdU was added to the medium 16 h before the quantification of BrdU incorporation. This procedure was use to generate data as presented in at least FIGS. 1a, 1b, 1c, and 1d. IC50 values were calculated for any given inhibitor by determining the concentration of compound needed to inhibit 50% of the response applied to the system. IC50 values were derived from the four parameter logistic equation which was fit to the compound concentration response data.

rat primary PASMCs = assay: BrdU cell proliferation assay, rat primary PASMCs; conditions: PASMC, 24 h, 5% FBS, average of 3, FIG. 1d, read-out: IC50, proliferation of rat primary PASMCs induced by 5% FBS
Method: as §1

hPAAF = assay: EdU cell proliferation assay, hPAAF; conditions: Homo sapiens, 5% FBS, N = 6, FIG. 1f, read-out: hPAAF IC50 (nM), inhibition of proliferation
Method: (§2) Alternatively, rather than using BrdU, EdU (5-ethynyl-2′-deoxyuridine) can be used. Cells were first pre-incubated with different concentrations of the CDK inhibitor for 30 minutes, and then 5% FBS was added to stimulate cell proliferation. Cells were maintained for 24 h before the proliferation rate was evaluated using EDU Click-iT EdU Alexa Fluor® 647 HCS Assay (Thermofisher Scientific, USA). EdU was added to the medium 16 h before the quantification of EdU incorporation. Proliferation was quantified by scanning the 96-well plates using automated high content imaging platform equipped with appropriate fluorescence microscopic filters for DAPI (4′,6-Diamidino-2-Phenylindole) or Hoechst stain and Cyanine5 dyes as part of the Click-iT assay. Proliferating EdU positive cells detected at Cyanine5 were quantified and normalized to total cell number per well where the total cell number per cell was identified by DAPI or Hoechst signal. The % effect was then calculated:
(§3) The average (avg) amount (amt) of proliferating cells per concentration of CDK inhibitor with FBS present.
(§4) The minimum amount of proliferation (min amt of prolif'n) is based on cell numbers in the wells where FBS is not added and no CDK inhibitor is present.
(§5) The maximum amount of proliferation (max amt of prolif'n) is based on cell numbers in the wells where FBS is added and no CDK inhibitor is present.

rPASMC = assay: EdU cell proliferation assay, rPASMC; conditions: Rattus norvegicus, 5% FBS, N = 6, FIG. 1g, read-out: rPASMC IC50 (nM), inhibition of proliferation
Method: as §2, §3, §4, §5

phospho-Rb (Ser807/811) = assay: In-cell western analysis of Rb phosphorylation in human PASMCs; conditions: for IC50: PASMC
Method: In-cell western analysis. Primary PASMCs from normal human subjects were cultured and serum-starved as described above. Cells were first pre-incubated with different concentrations of palbociclib for 60 minutes, and then either 5% FBS or 10% FBS or 30 ng/ml PDGF-BB was added to stimulate cell proliferation and Rb phosphorylation. The effect of Palbociclib on Rb phosphorylation was evaluated 24 h later, using in-cell western assay according to the manufacturer's instructions (Li-Cor Biosciences, Lincoln, Nebr., USA). Phosphorylated Rb was measured using a rabbit monoclonal antibody anti-phospho-Rb (Ser807/811) (Cell Signaling Technology, Inc., Danvers, Mass., USA), followed by detection with IRDye 800CW infrared fluorescent dye-labeled goat anti-rabbit secondary antibody. Actin levels were measured using mouse anti-actin monoclonal antibodies (pan Ab-5) (Fisher Scientific Pittsburgh, Pa., USA; Sigma Aldrich, St. Louis, Mo., USA), and followed by detection with IRDye 680RD-labeled goat anti-mouse secondary antibody. See FIG. 2a where 5% FBS was used, FIG. 2b where PDGF-BB was used, and FIG. 2c where 10% FBS was used.

IC50 (phospho-Rb (Ser807/811); Homo sapiens, 10% FBS, N = 6, FIG. 2c, read-out: Average IC50 (nM), inhibition of phosphorylation of Rb in hPASMCs): 64.2 nM
IC50 (phospho-Rb (Ser807/811); human PASMCs, 5% FBS, FIG. 2a, read-out: IC50, serum-induced Rb phosphorylation): 14.9 nM
IC50 (phospho-Rb (Ser807/811); human PASMCs, PDGF-BB, FIG. 2b, read-out: IC50, PDGF-BB induced Rb phosphorylation): 5.2 nM
Compound: CC(=O)c1c(C)c2cnc(Nc3ccc(N4CCNCC4)cn3)nc2n(C2CCCC2)c1=O [Palbociclib, 6-acetyl-8-cyclopentyl-5-methyl-2-{[5-(piperazin-1-yl)pyridin-2yl]amino}pyrido[2,3-d]pyrimidin-7(8H)-one]
IC50 (human primary PASMCs; 30 ng/ml PDGF-BB, average of 3, FIG. 1a, read-out: IC50, PDGF-BB induced proliferation of human primary PASMCs): 0.0074 µM
IC50 (human primary PASMCs; 5% FBS, average of 3, FIG. 1b, read-out: IC50, proliferation of human primary PASMCs induced by 5% FBS): 0.0074 µM
IC50 (rat primary PASMCs): 0.0274 µM
IC50 (hPAAF): 0.4 nM
IC50 (rPASMC): 19 nM
effect on total Rb levels (phospho-Rb (Ser807/811); human primary PASMCs, 5% FBS or PDGF-BB): little effect
